For series [1], the system named is VERO (kidney epithelial cells). As to the kind of experiment: MTT assay, VERO. The format is cell-based. The settings on record: Chlorocebus sabaeus, Vero, 48 h incubation, read-out: IC50 [µM] ± SD VERO. An excerpt:
(§1) The MTT (3-[4,5-dimethylthiazol-2-yl]-2,5-diphenyl tetrazolium bromide) assay was used to determine the cytotoxicity of tested compounds towards different cell lines: normal human dermal fibroblasts (NHDF), kidney epithelial cells (VERO), fibroblasts from Chinese hamster lung (V79) and four human cancer cells: A549 (pulmonary basal cell alveolar adenocarcinoma), MCF-7 (breast adenocarcinoma), LoVo (colon adenocarcinoma), and its drug resistant subline LoVo/Dx. The cell lines used in this study express COX-1 and COX-2. The LoVo line expressed COX-1, the LoVo/Dx subline express both COX-1 and COX-2 [61].
(§2) Each cell line was grown in the culture media recommended by supplier. Before the test they were detached with trypsin/EDTA solution, then to neutralize the effect of Trypsin/EDTA solution, FBS containing medium was used. After centrifugation the cells were stained with 0.4% solution of trypan blue, counted and inspected for viability using microscope. In the end, cells were inserted into 96-well culture plates and incubated in CO2 incubator (37 °C, 24 h). The number of cells was 2 × 10^3 cells per well. The tested compounds with different concentrations (5, 10, 20, 50, 100 µM) were dissolved in DMSO and then added to the cells (the final DMSO concentration was 0.1%). The cultures were incubated for another 48 h. After that time the cells were collected to be used in tests.
(§3) MTT assay was used to find out how tested compounds influence the metabolic activity of investigated cell lines. The cells were incubated with tested compounds. After removing of supernatant, 1 mg/mL of MTT solution in MEM was added to the plate (to each well) and then the plates were incubated at 37 °C for 2 h. The medium was removed again, and formazan crystals were dissolved in isopropanol. A Varioscan LUX microplate reader (Thermo Fisher Scientific, Waltham, MA, USA) was used to measure absorbance at 570 nm.
On the technique in general: Tetrazolium assays rely on reduction of a dye to a coloured formazan, in cell work by metabolically active cells.

For series [2], the system named is V79 (fibroblasts from Chinese hamster lung). As to the kind of experiment: MTT assay, V79. Type of series: cell-based. Conditions: Cricetulus griseus, Fibroblast, 48 h incubation, read-out: IC50 [µM] ± SD V79.
Description: as §1, §2, §3

Series [3] deals with A549 (pulmonary basal cell alveolar adenocarcinoma). Put plainly: MTT assay, A549. Type of series: cell-based. The settings on record: Homo sapiens, 48 h incubation, read-out: IC50 [µM] ± SD A549.
Description: as §1, §2, §3

For series [4], the system named is LoVo (colon adenocarcinoma). As to the kind of experiment: MTT assay, LoVo. Type of series: cell-based. The settings on record: Homo sapiens, 48 h incubation, read-out: IC50 [µM] ± SD LoVo.
Description: as §1, §2, §3

For series [5], the system named is LoVo/Dx (drug resistant subline of LoVo). As to the kind of experiment: MTT assay, LoVo/Dx. The settings on record: Homo sapiens, 48 h incubation, read-out: IC50 [µM] ± SD LoVo/Dx. The format is cell-based.
Description: as §1
as §2, with “In the end, cells were inserted into 96-well culture plates and incubated in CO2 incubator (37 °C, 24 h).” left out
MTT assay was used to find out how tested compounds influence the metabolic activity of investigated cell lines. The cells were incubated with tested compounds. […] The medium was removed again, and formazan crystals were dissolved in isopropanol.

In the next series the test system is V79 cell line. Put plainly: Intracellular ROS level (DCFH-DA), V79 cells. The format is cell-based, Chinese hamster. The settings on record: Cricetulus griseus, 4 h, V79, compound 100 μM. As for the experimental part: (§4) Two cell lines were chosen for investigations: V79 (Chinese hamster lung fibroblasts) and LoVo. V79 normal cells are widely used as the cell line tested in the studies of the oxidative stress. These cells are a living system model to explain the mechanism of ROS effects caused by varied compounds [73].
(§5) First, the tested compounds (in concentration of 100 μM) were added to the cell cultures and cells were incubated for 4 h. Then cells were washed and incubated with DCFH-DA (non-fluorescent probe) in dark at 37 °C for 2 h at CO2 [79]. Non-fluorescent, non-polar DCFH-DA (2′7′-dichlorodihydrofluorescein diacetate) at concentration of 25 μM was used as a marker of oxidative stress to determine the intracellular ROS levels. […] In this time, DCFH-DA which penetrated into the cells, was hydrolyzed by esterases to polar, non-fluorescent DCFH (2′7′-dichlorodihydrofluorescein) and then oxidized in the presence of ROS (reactive oxygen species) to fluorescent DCF (2′7′-dichlorofluorescein). DCF was measured using Varioscan LUX microplate reader (Thermo Fisher Scientific, Waltham, MA, USA) at λex = 485 nm and λem = 535 nm. Then results were presented as E/E0 where E is test sample value and E0—control value.
[…] E is the culture with the tested compound and E0 is the negative control without the compound. The routine statistical methods: two-way analysis of variance ANOVA as well as Tukey’s post-hoc test were used. It allowed us to determine the statistical significance of results, where p < 0.05 was set as significant. The statistical indicators were estimated using Statistica 13.3 software.

The subject of the next series is LoVo cell line. As to the kind of experiment: Intracellular ROS level (DCFH-DA), LoVo cells. The settings on record: Homo sapiens, 4 h, compound 100 μM. Type of series: cell-based. As for the experimental part:
as §4
as §5, with “nm.” for “nm. Then results were presented as E/E0 where E is test sample value and E0—control value.”
E is the culture with the tested compound and E0 is the negative control without the compound. The routine statistical methods: two-way analysis of variance ANOVA as well as Tukey’s post-hoc test were used. It allowed us to determine the statistical significance of results, where p < 0.05 was set as significant. The statistical indicators were estimated using Statistica 13.3 software.

Setting [6] is: with H2O2 (100 μM, 30 min), n = 5, read-out: ROS scavenging activity, Mean E/E0 ± SD, with H2O2.
[7] abbreviates: without H2O2, n = 5, read-out: ROS scavenging activity, Mean E/E0 ± SD, without H2O2.

Results on 7 molecules are retold here after PMC8745710, “Biological Evaluation and Molecular Docking Studies of Novel 1,3,4-Oxadiazole Derivatives of 4,6-Dimethyl-2-sulfanylpyridine-3-carboxamide” (International Journal of Molecular Sciences, 2022).

Like-named read-outs stand apart in the source and are kept apart here.

Broadly, the melting point is the temperature of the solid-liquid transition. On to `Cc1cc(C)c(C(=O)NCc2nn(CC(=O)NN)c(=S)o2)c(S)n1` [Compound 4, N-{[4-(2-hydrazinyl-2-oxoethyl)-5-sulfanylidene-4,5-dihydro-1,3,4-oxadiazol-2-yl]methyl}-4,6-dimethyl-2-sulfanylpyridine-3-carboxamide], for which the melting point was in the range of 201 to 205 °C. The IC50 in series [1] amounted to 77.4 ± 5.84 µM. Further, the IC50 in series [2] was 71.7 ± 5.8 µM. Further, the IC50 in series [3] worked out at 3.84 ± 0.3 µM. Further, the IC50 in series [4] came out at 3.01 ± 0.2 µM. Further, in series [5], the IC50 was 5.73 ± 3.84 µM. Moreover, the activity at 100 µM in the series on V79 cell line (setting [6]) amounted to 42 ± 8%. Also, the activity at 100 µM in the series with V79 cell line (setting [7]) came to 53 ± 22%. Further, in the series on LoVo cell line (setting [6]), the activity at 100 µM was determined as 83 ± 8%. In addition, the activity at 100 µM in the series on LoVo cell line (setting [7]) was 69 ± 33%.
Turning to `Cc1cc(C)c(C(=O)NCc2nn(CC(=O)NN=Cc3ccccc3)c(=S)o2)c(S)n1` [Compound 5, 4,6-Dimethyl-N-{[4-(2-(2-benzylidenehydrazinyl)-2-oxoethyl)-5-sulfanylidene-4,5-dihydro-1,3,4-oxadiazol-2-yl]methyl}-2-sulfanylpyridine-3-carboxamide], the melting point lay in the range of 236 to 239 °C. Moreover, the IC50 in series [1] came out at 100 ± 13.5 µM. Further, in series [2], the IC50 was 84.3 ± 3.4 µM. For the same molecule, the IC50 in series [3] came to 3.62 ± 0.43 µM. Moreover, in series [4], the IC50 amounted to 3.13 ± 0.17 µM. The IC50 in series [5] was 5.69 ± 1.03 µM. In the series on V79 cell line (setting [6]), the activity at 100 µM is 59 ± 21%. Moreover, the activity at 100 µM in the series on V79 cell line (setting [7]) was found to be 82 ± 13%. For the same molecule, in the series on LoVo cell line (setting [6]), the activity at 100 µM was 87 ± 21%. For the same molecule, the activity at 100 µM in the series with LoVo cell line (setting [7]) came out at 72 ± 21%.
As for `Cc1cc(C)c(C(=O)NCc2nn(CC(=O)NN=Cc3ccc(F)cc3)c(=S)o2)c(S)n1` [Compound 6, 4,6-Dimethyl-N-{[4-(2-(2-(4-fluorobenzylidene)hydrazinyl)-2-oxoethyl)-5-sulfanylidene-4,5-dihydro-1,3,4-oxadiazole-2-yl]methyl}-2-sulfanylpyridine-3-carboxamide], the melting point was 295 to 298 °C. Besides, the IC50 in series [1] stood at 59.6 ± 5.42 µM. In addition, the IC50 in series [2] was found to be 80.7 ± 5.6 µM. In addition, in series [3], the IC50 stood at 4.05 ± 0.26 µM. Also, the IC50 in series [4] amounted to 3.2 ± 0.26 µM. In series [5], the IC50 was 7.07 ± 2.48 µM. Further, the activity at 100 µM in the series on V79 cell line (setting [6]) amounted to 97 ± 11%. In the series on V79 cell line (setting [7]), the activity at 100 µM stood at 82 ± 17%. In addition, in the series with LoVo cell line (setting [6]), the activity at 100 µM worked out at 88 ± 4%. In addition, in the series on LoVo cell line (setting [7]), the activity at 100 µM worked out at 74 ± 22%.
`Cc1ccc(C=NNC(=O)Cn2nc(CNC(=O)c3c(C)cc(C)nc3S)oc2=S)cc1` [Compound 7, 4,6-Dimethyl-N-{[4-(2-(2-(4-methylbenzylidene)hydrazinyl)-2-oxoethyl)-5-sulfanylidene-4,5-dihydro-1,3,4-oxadiazole-2-yl]methyl}-2-sulfanylpyridine-3-carboxamide] came in with a melting point of 215 to 220 °C. Also, the IC50 in series [1] turned out to be 68.3 ± 3.24 µM. Further, the IC50 in series [2] stood at 47.7 ± 1.73 µM. Moreover, in series [3], the IC50 turned out to be 3.72 ± 0.54 µM. For the same molecule, the IC50 in series [4] was 3.46 ± 0.39 µM. In addition, the IC50 in series [5] came to 7.89 ± 1.78 µM. Also, the activity at 100 µM in the series with V79 cell line (setting [6]) turned out to be 81 ± 23%. Further, the activity at 100 µM in the series on V79 cell line (setting [7]) is 103 ± 39%. Moreover, the activity at 100 µM with LoVo cell line (setting [6]) was 95 ± 27%. Further, the activity at 100 µM with LoVo cell line (setting [7]) was found to be 107 ± 38%.
`CSc1ccc(/C=N\NC(=O)Cn2nc(CNC(=O)c3c(C)cc(C)nc3S)oc2=S)cc1` [Compound 8, 4,6-Dimethyl-N-{[4-(2-(2-(4-methysulfanylbenzylidene)hydrazinyl)-2-oxoethyl)-5-sulfanylidene-4,5-dihydro-1,3,4-oxadiazole-2-yl]methyl}-2-sulfanylpyridine-3-carboxamide] registered a melting point of 235 to 238 °C. Moreover, the IC50 in series [1] was determined as 50.4 ± 2.45 µM. Further, the IC50 in series [2] amounted to 71.1 ± 2.4 µM. In addition, in series [3], the IC50 turned out to be 4.34 ± 0.56 µM. In series [4], the IC50 is 3.6 ± 0.55 µM. In series [5], the IC50 turned out to be 21 ± 5.92 µM. The activity at 100 µM in the series with V79 cell line (setting [6]) worked out at 72 ± 11%. Besides, the activity at 100 µM in the series with V79 cell line (setting [7]) is 85 ± 29%. For the same molecule, in the series with LoVo cell line (setting [6]), the activity at 100 µM is 80 ± 22%. Besides, the activity at 100 µM in the series on LoVo cell line (setting [7]) is 65 ± 20%.
On to `Cc1cc(C)c(C(=O)NCc2nn(CC(=O)NN=Cc3ccc(C#N)cc3)c(=S)o2)c(S)n1` [Compound 9, 4,6-Dimethyl-N-{[4-(2-(2-(4-cyanobenzylidene)hydrazinyl)-2-oxoethyl)-5-sulfanylidene-4,5-dihydro-1,3,4-oxadiazole-2-yl]methyl}-2-sulfanylpyridine-3-carboxamide], for which the melting point lay in the range of 298 to 300 °C. In addition, in series [1], the IC50 is 89.8 ± 8.43 µM. The IC50 in series [2] was found to be 77.7 ± 4.41 µM. In addition, in series [3], the IC50 came to 3.36 ± 0.2 µM. For the same molecule, in series [4], the IC50 is 3.24 ± 0.1 µM. Also, the IC50 in series [5] came to 6.87 ± 1.45 µM. Also, the activity at 100 µM with V79 cell line (setting [6]) was 71 ± 12%. The activity at 100 µM with V79 cell line (setting [7]) was 78 ± 31%. For the same molecule, the activity at 100 µM with LoVo cell line (setting [6]) amounted to 91 ± 19%. Besides, in the series with LoVo cell line (setting [7]), the activity at 100 µM came to 76 ± 22%.
On to `Cc1cc(C)c(C(=O)NCc2nn(CC(=O)NN=Cc3ccc(Cl)cc3)c(=S)o2)c(S)n1` [Compound 10, 4,6-Dimethyl-N-{[4-(2-(2-(4-chlorobenzylidene)hydrazinyl)-2-oxoethyl)-5-sulfanylidene-4,5-dihydro-1,3,4-oxadiazole-2-yl]methyl}-2-sulfanylpyridine-3-carboxamide], for which the melting point lay in the range of 278 to 280 °C. In series [1], the IC50 came to 130 ± 9.5 µM. Also, in series [2], the IC50 turned out to be 56.1 ± 5.42 µM. Further, the IC50 in series [3] turned out to be 3.52 ± 0.19 µM. In addition, the IC50 in series [4] is 3.12 ± 0.23 µM. In addition, the IC50 in series [5] was 22.3 ± 2.1 µM. Besides, the activity at 100 µM in the series on V79 cell line (setting [6]) amounted to 82 ± 37%. For the same molecule, in the series on V79 cell line (setting [7]), the activity at 100 µM is 73 ± 27%. In addition, the activity at 100 µM with LoVo cell line (setting [6]) is 91 ± 14%. Also, the activity at 100 µM with LoVo cell line (setting [7]) was 85 ± 27%.
